Reference: US20040081663A1, “Pharmaceutical composition for treatment and prevention of cancer and the preparation thereof” (priority 2002, published 2004)

Test system: LLC1 tumor cells (Lewis lung cancer cell line)
Test: Lewis lung (LLC) peritoneal carcinomatosis model, tumor resistance test
Type: in vivo, C57BL/6J mice
Details: for number of mice with tumors: 5 mice per group, 26th day, control: all mice; for average size of tumors (width times length): injected daily for 13 days, sacrificed on 26th day, control 12.38
Excerpt: Lewis lung (LLC) peritoneal carcinomatosis model was used for treatment and prevention of cancer in vivo animal tests, referring to Bertram J S, Janik P., Cancer Lett 1980 November;11(1):63-73; Hirazumi A, Furusawa E. Phytother Res. 1999 August;13(5):380-7; Itoh H, Noda H, Amano H, Ito H. Anticancer Res. 1995 September-October;15(5B):1937-47; Wallace P K, Morahan P S., J Leukoc Biol. 1994 July;56(1) :41-51.; Redmond HP, Schuchter L, Bartlett D, Kelly C J, Shou J, Leon P, Daly J M. , J Surg Res. 1992 April;52(4):406-11; Kagawa K, Yamashita T, Tsubura E, Yamamura Y., Cancer Res. 1984 February;44(2):665-70; and Yamamoto T, Yamashita T, Tsubura E., Invasion Metastasis. 1981; 1(1) :71-84.
Twenty male C57BL/6J mice of two month old were separated into four groups for 5 mice/each. Each mouse was inoculated with 1×10^5 LLC1 tumor cells (Lewis lung cancer cell line) by abdominal injection around the thigh on the first day, i.e. day 0. Each group of mice was treated differently for 13 days as described below and treatment was stopped for 12 days. The mice were sacrificed on the 26th day. The abdomen of each mouse was dissected to examine the tumor size. The size of tumor was defined as width times length.
5 mice were used as the control group. The mice in the control group were injected daily with 100 microliters of saline with propylene glycol (3.05 μl propylene glycol in 100 ml normal saline) for 13 days. The treatment was stopped for 12 days and the mice were sacrificed on the 26th day after inoculation with LLC1 tumor cells. All mice had tumors with an average size of 12.38.
Authentic lovastatin sample was prepared and dissolved in saline with […] as indicated above. The dose amount for administration was adjusted according to mice body weight. The dose amount indicated was the proportional equivalent of lovastatin for human subjects of 60 Kg body weight.
Five C57BL/6J mice were inoculated with 1×10^5 LLC1 cells on day 0 as described above. Lovastatin equivalent of 80 mg/person was injected daily on the other side of the abdomen every day for 13 days. The treatment was stopped for 12 days and the mice were sacrificed on the 26th day after inoculation of LLC1 tumor cells. All mice had tumors with an average size of 9.96.
The same procedures of L80 were followed except that the dose amount for administration was changed to 200 mg/day/person equivalent. Three mice had tumors with an average size of 6.8.
The liquid fermentation product obtained from sample 2 was centrifuged 10,000 rpm for 20 minutes. The supernatant was collected and further filtrated with a 0.2 micron filter in sterile condition. The concentration of lovastatin in the derived filtrate was detected as 0.45 mg/ml. The dose amount for administration was adjusted according to mice body weight. The equivalent amount of lovastatin for human subjects was used for mice tumor resistance tests as indicated.
The same procedures of example L80 were followed except that the sample was Monascus composition. The dose amount for administration was equivalent to 80 mg lovastatin/day/person. The filtrate was administrated in the ratio of 60 μl filtrate to 40 μl saline.
The same procedures of example M80 were followed except that the administration sample was Monascus composition. The dose amount for administration was equivalent to 200 mg lovastatin/day/person. The filtrate was administrated in the ratio of 60 μl filtrate to 40 μl saline.

[1] = dose equivalent to 80 mg lovastatin/day/person
[2] = dose equivalent to 200 mg lovastatin/day/person

SMILES: CC[C@H](C)C(=O)O[C@H]1C[C@@H](C)C=C2C=C[C@H](C)[C@H](CC[C@@H]3C[C@@H](O)CC(=O)O3)[C@H]21 [Lovastatin, lovastatin]
- number of mice with tumors [1]: All
- average size of tumors (width times length) [1]: 9.96
- number of mice with tumors [2]: Three
- average size of tumors (width times length) [2]: 6.8
- tumor size (FIG. 6), in words (higher dose of lovastatin (L200) and Monascus compositions M80 and M200): smaller tumor sizes
